Reference: patent US9090549B2, “1,4-naphthoquinones derivatives and therapeutic use thereof” (CENTRE NATIONAL DE LA RECHERCHE SCIENTIFIQUE (C.N.R.S.), priority 2008, dated 2015)

Key:
[1] = molecular target: P. falciparum glutathione reductase (PfGR) (Plasmodium falciparum, UniProt Q94655); test: 1,4-Naphthoquinone reductase activity of P. falciparum glutathione reductase; format: biochemical; conditions: for substrate behaviour from catalytic efficiencies kcat/KM: with respect to menadione; for increased catalytic efficiency (kcat/KM) with respect to menadione: relative to menadione
Description: The reduction assay mixture consisted of 100 mM potassium phosphate buffer pH 6.9, 200 mM KCl, 1 mM EDTA and 100 μM NADPH in a total volume of 1 mL. 1,4-naphthoquinone reductase activity was determined by recording the initial velocities in the presence of increasing naphthoquinone concentrations (0-300 μM). […] For the determination of KM and Vmax values, the steady-state rates were fitted by using nonlinear regression analysis software (Kaleidagraph) to the Michaelis-Menten equation. From these values, the turnover number kcat and the catalytic efficiency kcat/KM were calculated.

methemoglobin(Fe3+) = methemoglobin(Fe3+) (Homo sapiens, UniProt P68871+P69905); test: Redox-cycling of methemoglobin(Fe3+) into oxyhemoglobin(Fe2+) with NADPH/GR system; format: biochemical
From the text: Since FPIX(Fe^2+) is an inhibitor of hematin polymerization, compounds displaying the ability to reduce FPIX(Fe^3+) into FPIX(Fe^2+) might synergistically contribute with GR inhibition to increased oxidative stress in infected-red blood cells. To evaluate the redox-cycling activity of FPIX(Fe^3+) into FPIX(Fe^2+) we set up an assay using the naphthoquinone, the glutathione reductase/NADPH-based system to regenerate the dihydronaphthoquinone continuously and methemoglobin(Fe^3+) (MetHb). The UV-spectrum of MetHb between 300 nm and 700 nm is characterized by a maximal absorbance at 405 nm and a broad band centered at around 630 nm. […] We used 20 μM methylene blue as positive control of this redox-cycling activity.
In an Eppendorf tube containing 6.4 mg MetHb dissolved in 885 μL GR buffer (47 mM potassium phosphate buffer pH 6.9, 200 mM KCl, 100 mM EDTA), 10 μL 20 mM P_TM25 dissolved in DMSO and 100 μL NADPH dissolved in GR buffer were added. The reaction was started by the addition of 5 μL human GR and then incubated at 37° C. In a 1 mL cuvette 20 μL of the reaction mixture was diluted with 980 μL GR buffer and a UV-spectra between 300 nm and 700 nm was done after 5 min, 10 min, 20 min and 30 min incubation time. The final concentrations in the reaction mixture were 100 μM MetHb, 200 μM P_TM25, 400 μM NADPH and […] hGR, final DMSO concentration 1%.
Spectra were measured after 5 min (blue), 10 min (black), 20 min (green) and 30 min (red).

[2] = system: P. falciparum multidrug-resistant strain Dd2; test: Dd2 growth inhibition, 3H-hypoxanthine assay; format: cell-based, Plasmodium falciparum; conditions: Plasmodium falciparum, DD2, 48 h exposure then 24 h hypoxanthine; read-out: IC50 against Dd2
Description: The IC50 was tested by standard in vitro antiproliferation assays (Desjardins et al, 1979 Antimicrob. Agents Chemother 1979, 16, 710-718). Infected erythrocytes in ring stage (0.5% parasitemia, 2.5% hematocrit) in 96-well plates were exposed to the compounds for 48 h and then to radioactive hypoxanthine for 24 h. The amount of radioactivity in precipitable material served as an index of cell proliferation.

[3] = system: P. falciparum chloroquine sensitive strain 3D7; test: 3D7 growth inhibition, 3H-hypoxanthine assay; format: cell-based, Plasmodium falciparum; conditions: Plasmodium falciparum, 3D7; read-out: IC50 against Pf 3D7
Description: (§1) The IC50 values against Pf-GHA and MRC-5 were determined by using the less sensitive colorimetric NBT-based lactate dehydrogenase assay (Makler et al, Am. J. Trop. Med. Hyg. 1993, 48 (6), 739-741) based on redox-reactions.
(§2) Parasite Cultures. […] P. falciparum in vitro culture was carried out using standard protocols (Trager et al, 1976 Science, 193, 673-675) with modifications. Briefly, parasites were maintained in tissue culture flasks in human A Rh+ erythrocytes at 5% hematocrit in RPMI 1640 supplemented with 25 mM HEPES, 24 mM NaHCO3, 0.2% (w/v) glucose, 0.03% L-glutamine, 150 μM hypoxanthine, and 0.5% Albumax II® (Invitrogen) in a 5% CO2/air mixture at 37° C., and the medium was changed daily.
(§3) In Vitro Antiparasitic Bioassays. Drug susceptibility of P. falciparum was studied using a modified method (Cameron et al, 2004 J. Biol. Chem. 279, 31429-31439) of the protocol described previously (Desjardins et al, 1979). All assays included CQ diphosphate (Sigma, UK) as a standard and control wells with untreated infected and uninfected erythrocytes. IC50 values were derived by sigmoidal regression analysis (Microsoft Xlfit™).

[4] = system: P. falciparum chloroquine resistant strain K1; test: K1 growth inhibition, 3H-hypoxanthine assay; format: cell-based, Plasmodium falciparum; conditions: Plasmodium falciparum, K1; read-out: IC50 against Pf K1
Description: as §1, §2, §3

Pf-GHA = Pf-GHA growth inhibition, colorimetric NBT-based lactate dehydrogenase assay; format: cell-based; conditions: Plasmodium falciparum; 72 h incubation; read-out: IC50 against Pf-GHA
Description: as §1
In Vitro Antiparasitic Bioassays. The strain is maintained in RPMI-1640 medium supplemented with 0.37 mM hypoxanthine, 25 mM HEPES, 25 mM NaHCO3, and 10% O^+ human serum together with 2-4% washed human O^+ erythrocytes. All cultures and assays are conducted under an atmosphere of 4% CO2, 3% O2 and 93% N2. Assays are performed in 96-well microtiter plates, each well containing 10 μL of the watery compound dilutions together with 190 μL of the malaria parasite inoculum (1% parasitaemia, 2% HCT). After 72 h incubation, plates are frozen and stored at −20° C. After thawing, 20 μL of each well is transferred into another plate together with 100 μL Malstat reagent and 20 μL of 1/1 mixture of PES (phenazine ethosulfate, 0.1 mg/mL) and NBT (Nitro Blue Tetrazolium Grade III, 2 mg/mL). Change in colour is measured spectrophotometrically at 655 nm. The results are expressed as % reduction in parasitaemia compared to control wells. Compounds are treated at 5 concentrations (64-16-4-1 and 0.25 μM or μg/mL).

P. berghei ANKA = test: In vivo 4-day suppressive test in P. berghei-infected mice; design: species or system Plasmodium berghei; conditions: for activity on 4-day treatment: P. berghei-infected mice
Description: The in vivo tests in the mouse model were done according to a standard protocol (Peters et al Handbook of Animal Models of Infection; Academic Press, London, 1999; pp. 756-771). […] […] For administration, compounds were freshly prepared in 10% DMSO in sterile phosphate-buffered saline the day of use. Two hours post-infection mice received the first treatment by the intraperitoneal route. Mice were further treated on days +1-3. Blood films from tail blood were prepared on day +4, and parasitaemia was determined by microscopic examination of Giemsa-stained blood films. […] […] Mice were treated and levels of parasitemia determined as described.

[5] = molecular target: T1, human glutathione reductase (hGR) (Homo sapiens, UniProt P00390); test: Inhibition of human glutathione reductase under steady-state conditions; format: biochemical; conditions: pH 6.9, 25° C., 1 mM GSSG, 100 μM NADPH
T1 sequence (P00390 44-522): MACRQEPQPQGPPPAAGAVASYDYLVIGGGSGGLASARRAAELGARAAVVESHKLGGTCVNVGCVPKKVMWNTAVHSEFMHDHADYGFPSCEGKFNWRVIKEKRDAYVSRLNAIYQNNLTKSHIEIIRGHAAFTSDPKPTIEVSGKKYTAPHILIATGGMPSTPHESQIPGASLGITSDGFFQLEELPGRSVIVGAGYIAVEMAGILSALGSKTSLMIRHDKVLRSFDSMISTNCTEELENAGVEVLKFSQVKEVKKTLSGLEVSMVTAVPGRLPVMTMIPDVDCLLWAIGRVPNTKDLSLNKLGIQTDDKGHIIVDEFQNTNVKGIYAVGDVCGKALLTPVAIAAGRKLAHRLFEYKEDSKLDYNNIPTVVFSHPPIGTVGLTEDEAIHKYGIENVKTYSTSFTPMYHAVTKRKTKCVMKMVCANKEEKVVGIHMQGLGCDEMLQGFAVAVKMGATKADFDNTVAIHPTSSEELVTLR

Chain of methemoglobin(Fe3+) (P69905 2-142 limits assumed): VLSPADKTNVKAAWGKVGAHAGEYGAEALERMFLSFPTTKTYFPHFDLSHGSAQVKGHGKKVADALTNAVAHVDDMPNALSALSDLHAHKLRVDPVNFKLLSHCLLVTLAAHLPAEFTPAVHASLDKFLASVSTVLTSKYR
Chain of methemoglobin(Fe3+) (P68871 2-147 limits assumed): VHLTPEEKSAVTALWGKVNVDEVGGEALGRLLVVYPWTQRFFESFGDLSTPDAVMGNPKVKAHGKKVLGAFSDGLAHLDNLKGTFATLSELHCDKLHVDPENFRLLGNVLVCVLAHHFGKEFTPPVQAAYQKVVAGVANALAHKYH
Chain of P. falciparum glutathione reductase (PfGR) (Q94655 2-500 limits assumed): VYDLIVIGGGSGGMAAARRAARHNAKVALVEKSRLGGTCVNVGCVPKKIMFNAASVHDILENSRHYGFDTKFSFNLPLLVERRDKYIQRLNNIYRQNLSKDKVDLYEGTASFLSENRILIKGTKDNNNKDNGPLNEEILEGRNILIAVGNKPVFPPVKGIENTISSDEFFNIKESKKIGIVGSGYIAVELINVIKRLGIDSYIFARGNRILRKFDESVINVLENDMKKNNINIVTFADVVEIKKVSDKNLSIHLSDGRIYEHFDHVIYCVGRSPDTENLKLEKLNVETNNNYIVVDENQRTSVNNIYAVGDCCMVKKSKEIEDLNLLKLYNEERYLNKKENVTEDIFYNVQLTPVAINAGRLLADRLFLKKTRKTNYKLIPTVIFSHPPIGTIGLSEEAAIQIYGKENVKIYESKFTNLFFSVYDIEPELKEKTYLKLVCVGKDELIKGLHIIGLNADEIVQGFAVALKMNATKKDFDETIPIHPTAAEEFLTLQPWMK

| Compound | substrate behaviour from catalytic efficiencies kcat/KM [1] | IC50 [2] [nM] | IC50 (Pf-GHA) [nM] | melting point | other results |
| --- | --- | --- | --- | --- | --- |
| 2-Methyl-3-(fluoro-benzoyl)-4a,8a-dihydro-[1,4]naphthoquinone [P_TM27] | very effective substrates |  |  |  | Km ([1]; pH 6.9, 100 μM NADPH, 1% DMSO): 56.1 µM |
| CN(C)c1ccc2nc3ccc(=[N+](C)C)cc-3sc2c1 [Methylene Blue, reference compound] |  |  |  |  | shift of λmax of MetHb (methemoglobin(Fe3+); 20 μM Methylene Blue, same conditions): clear shift |
| CC1=C(Cc2ccc(C)cc2)C(=O)C2C=CC=CC2C1=O (stereo not shown) [P_TM21, 2-Methyl-3-(4-methyl-benzyl)-4a,8a-dihydro-[1,4]naphthoquinone] |  | 791 | < 5000 | 225 °C (dec.) | IC50 [3]: 270 nM; IC50 [4]: 100 nM |
| CC1=C(Cc2ccc(Br)cc2)C(=O)C2C=CC=CC2C1=O (stereo not shown) [P_TM24, 2-Methyl-3-(4-bromo-benzyl)-4a,8a-dihydro-[1,4]naphthoquinone] |  | < 100 | < 5000 | 121 to 122 °C | decrease in parasitaemia (P. berghei ANKA; daily dose of 50 mg/kg ip, 4-day test, mice): 35.6%; activity on 4-day treatment (P. berghei ANKA; intraperitoneal): significant activity |
| CC1=C(C(=O)c2ccc(Br)cc2)C(=O)C2C=CC=CC2C1=O (stereo not shown) [P_TM25, 2-Methyl-3-(4-bromo-benzoyl)-4a,8a-dihydro-[1,4]naphthoquinone] | very effective substrates |  |  | 170 to 171 °C | concentration at which the shift of maximal absorbance of MetHb from 405 to 410 nm starts being visible (methemoglobin(Fe3+); 100 μM MetHb, NADPH, human GR): 50 µM; redox-cycling of methemoglobin in the presence of GR (methemoglobin(Fe3+); 200 μM P_TM25, 100 μM MetHb, 400 μM NADPH, human GR, 37° C.): can undergo redox-cycling of methemoglobin |
| CC1=C(Cc2ccc(C(F)(F)F)cc2)C(=O)c2ccccc2C1=O [P_TM29] |  |  |  |  | IC50 [5]: 1600 nM |
| COc1ccc(C(=O)C2=C(C)C(=O)C3C=CC=CC3C2=O)cc1 (stereo not shown) [P_TM34, 2-Methyl-3-(4-methoxy-benzoyl)-4a,8a-dihydro-[1,4]naphthoquinone] | very effective substrates |  |  | 150 to 151 °C |  |
| CC1=C(Cc2ccc(O)cc2)C(=O)C2C=CC=CC2C1=O (stereo not shown) [P_TM36, 2-Methyl-3-(4-hydroxy-benzyl)-4a,8a-dihydro-[1,4]naphthoquinone] |  | < 100 | < 5000 | 165 to 166 °C | activity on 4-day treatment (P. berghei ANKA; intraperitoneal): significant activity |
| CC1=C(C(=O)c2ccc(O)cc2)C(=O)C2C=CC=CC2C1=O (stereo not shown) [P_TM39, 2-Methyl-3-(4-hydroxy-benzoyl)-4a,8a-dihydro-[1,4]naphthoquinone] | very effective substrates |  | < 5000 | 184 to 185 °C |  |
| CC1=C(C(=O)c2ccc([N+](=O)[O-])cc2)C(=O)C2C=CC=CC2C1=O (stereo not shown) [P_TM40, 2-Methyl-3-(4-nitro-benzoyl)-4a,8a-dihydro-[1,4]naphthoquinone] | very effective substrates | 103 |  | 170 to 171 °C | increased catalytic efficiency (kcat/KM) with respect to menadione [1]: 3.9 fold |
| CC1=C(Cc2ccc(C(C)(C)C)cc2)C(=O)C2C=CC=CC2C1=O (stereo not shown) [P_TM43, 2-Methyl-3-(4-tert-butyl-benzyl)-4a,8a-dihydro-[1,4]naphthoquinone] |  | < 100 |  | 60 to 61 °C | reduction in parasitaemia (P. berghei ANKA; daily dose of 30 mg/kg, intraperitoneal, 4-day test, mice): 43.4%; activity on 4-day treatment (P. berghei ANKA; intraperitoneal): significant activity |
| CC1=C(C(=O)c2ccc(Br)cc2)C(=O)C2C(O)=CC=CC2C1=O (stereo not shown) [P_TM47, 3-(4-bromo-benzoyl)-5-hydroxy-2-methyl 4a,8a-dihydro-[1,4]naphthoquinone] | very effective substrates |  |  | 161 to 162 °C | increased catalytic efficiency (kcat/KM) with respect to menadione [1]: 6.3 fold |
| CC1=C(CC2=CC(=O)C=CC2=O)C(=O)C2C=CC=CC2C1=O (stereo not shown) [P_TM63, 2-(3,6-Dioxo-cyclohexa-1,4-dienylmethyl)-3-methyl-4a,8a-dihydro-[1,4]naphthoquinone] | very effective substrates |  |  |  | increased catalytic efficiency (kcat/KM) with respect to menadione [1]: 17.2 fold |
